This is an account of results in patent US20180362766A1, “Fluorogenic pH-Sensitive Dyes and Their Methods of Use” (Life Technologies Corporation, priority 2012, published 2018).

This experiment concerns phagocytic J774.2 murine macrophages. The experiment is described as follows: No-wash phagocytosis assay with dye-conjugated E. coli bioparticles. The following applies: E. coli bioparticles conjugated to a pH-sensitive fluorescent dye. It counts as cell-based. The text has this:
Certain embodiments provide for a no-wash, no-quench assay for phagocytosis that is based on fluorogenic bioparticles comprising the pH-sensitive fluorescent dye compounds provided herein. Current protocols for measuring phagocytosis that use fluorescent bioparticles, require a trypan blue quenching step and several washing steps. These steps can introduce significant variability in the assay. To address this issue, provided herein is a no-wash phagocytosis kit, using E. coli bioparticles conjugated to a pH-sensitive fluorescent dye as described herein. These bioparticle conjugates are weakly fluorescent at extracellular pH. […] The pH-sensitive fluorescent bioparticles described herein may be used in plate based, as well as imaging and flow cytometry assays of phagocytosis.

Turning to `C=C1[C@@H](C)[C@H]2[C@H](Cc3ccccc3)NC(=O)[C@]23[C@H](OC(C)=O)/C=C/[C@@](C)(O)C(=O)[C@@H](C)C/C=C/[C@H]3[C@@H]1O` [cytochalaisin D, cytochalasin D], the “inhibition of uptake of the bioparticles (phagocytosis)” value is “potently inhibited”.
